Experimental data from EP4752149A1, “OXYGEN-CONTAINING FUSED TRICYCLIC DERIVATIVE, AND PREPARATION METHOD THEREFOR AND USE THEREOF” (Tuojie Biotech (Shanghai) Co., Ltd., priority 2023, dated 2025).

Assays:
[1] = biological target: T1, CDK2/CycE1 (Homo sapiens, UniProt P24941); test: Activity against cyclin-dependent kinase CDK2/CycE1 (Caliper EZ Reader mobility shift); format: biochemical; settings: 1 h at room temperature; highest concentration 1 µM
T1 construct: purchased Carna 04-165
Description: The test compounds (the highest concentration was 1 µM) were added using Echo 650 and serially diluted 3-fold to obtain a total of 9 concentration points. The assay plate was sealed and centrifuged at 1000 g for 1 min. 2.5× enzymes were prepared in a 1× kinase buffer (50 mM HEPES, pH 7.5, 0.0015% Brij-35, […]), and the 2.5× enzymes (10 µL) were added to the 384-well assay plate. The plate was centrifuged at 1000 g for 30 s and left to stand at room temperature for 10 min. 2.5× substrate and ATP mixtures were prepared in the 1× kinase buffer, and the 2.5× substrate and ATP mixtures (10 µL) were added to start reactions. The assay plate was centrifuged at 1000 g for 30 s, sealed, and incubated at room temperature for 1 h. 25 µL of a stop solution reagent (100 mM HEPES, pH 7.5, 0.015% Brij-35, 0.2% Coating Reagent #3, 50 mM EDTA) was added.
Conversion rate data were read on a CaliperEZ Reader. The conversion rate data were copied from the CaliperEZ Reader. The conversion rates were converted to inhibition rate data. Inhibition% = (max−conversion)/(max−min) × 100, [formula] where "min" is the reading of a control sample well to which no enzyme was added for reaction; "max" is the reading of a control well to which DMSO was added.
IC50 values were obtained by fitting using XLFit excel add-in version 5.4.0.8. Y = Bottom + (Top−Bottom)/(1+((IC50/X))^(∧)HillSlope). [formula] Table 6. […]

[2] = system: Human breast cancer cells (SUM-149PT); test: Inhibitory activity against human breast cancer cells (SUM-149PT), CTG cell viability; format: cell-based; settings: Homo sapiens, SUM149PT, 120 h, 5 days with compound
Description: (§1) Human breast cancer cells (SUM-149PT) were cultured using a DMEM culture medium containing 10% FBS in a cell incubator (37 °C, 5% CO2). On day one, the cells were plated in a 384-well plate at a cell concentration of 800 cells/well and cultured overnight in an incubator. On day two, the cells were treated with compounds. The highest compound concentration was 10 µM and was diluted 3-fold to obtain 9 concentrations, and the final concentration of DMSO was 0.2%. After the cells were cultured in the incubator for another 5 days, the cell viability was tested using a CTG Cell Viability Detection Reagent; the testing method was consistent with the method provided by the kit. Data were processed using XLFit, and IC50 was calculated. [formula] X: the logarithm of the compound concentration; Y: % inhibition. Table 14. The IC50 (nM) of a compound of the present disclosure against SUM-149PT

[3] = system: Human non-small cell lung cancer cells (A549); test: Inhibitory activity against human non-small cell lung cancer cells (A549), CTG cell viability; format: cell-based; settings: Homo sapiens, 120 h, 5 days with compound
Description: as §1, with “non-small cell lung” for “breast”, “(A549)” for “(SUM-149PT)”, “an F12K” for “a DMEM”, “300” for “800”, “10.” for “14.”, “A549” for “SUM-149PT”

Structure (SMILES): C[C@H]1COc2c(-c3nc(Nc4ccc(N5CCOCC5=O)cc4F)ncc3Cl)cc(F)c3nc(C(C)(C)O)n1c23 [Example 1, (S)-4-(4-((5-Chloro-4-(8-fluoro-2-(2-hydroxypropan-2-yl)-3-methyl-3,4-dihydro-5-oxa-1,2a-diazaacenaphthylen-6-yl)pyrimidin-2-yl)amino)-3-fluorophenyl)morpholin-3-one]
- IC50 [1]: 9.8 nM
- IC50 [2]: 256 nM
- IC50 [3]: 236 nM
